“And” between values parts separate entries of the source, which are not always exact repeats. Equal values may be shown once.
Experiment: xn = mol fraction of the nth substance listed
Conditions: 101 kPa

COc1ccccc1O + Nc1ccccc1
303.15 K
Conditions	viscosity [mPa·s]
x2 = 0.1	4.74
x2 = 0.2	4.9
x2 = 0.3	5.11
x2 = 0.35	5.15
x2 = 0.4	5.23
x2 = 0.45	5.12
x2 = 0.5	5.09
x2 = 0.55	4.94
x2 = 0.6	4.86
x2 = 0.7	4.58
x2 = 0.8	4.23
x2 = 0.9	3.61

CSCC[C@H](N)C(=O)O + O
viscosity
Conditions	293.15 K	298.15 K	303.15 K	308.15 K	313.15 K	318.15 K
x1 = 0.00045	1.011 mPa·s and 1.009 mPa·s	0.8992 mPa·s and 0.8967 mPa·s	0.8057 mPa·s and 0.8039 mPa·s	0.727 mPa·s and 0.7258 mPa·s	0.6602 mPa·s and 0.6603 mPa·s	0.6044 mPa·s
x1 = 0.0009	1.019 mPa·s and 1.016 mPa·s	0.9063 mPa·s and 0.903 mPa·s	0.8126 mPa·s and 0.8103 mPa·s	0.734 mPa·s and 0.7327 mPa·s	0.6671 mPa·s and 0.6678 mPa·s	–
x1 = 0.0013	1.023 mPa·s	0.9098 mPa·s	0.8169 mPa·s	0.7392 mPa·s	0.6743 mPa·s	–
x1 = 0.00135	–	0.9131 mPa·s	0.8195 mPa·s	0.7408 mPa·s	0.6735 mPa·s	0.6178 mPa·s
x1 = 0.001798	–	–	0.8264 mPa·s	0.7475 mPa·s	–	0.6244 mPa·s
x1 = 0.0018	–	0.9165 mPa·s	0.8232 mPa·s	0.745 mPa·s	0.6815 mPa·s	–
x1 = 0.002247	1.039 mPa·s	0.9266 mPa·s	0.833 mPa·s	0.754 mPa·s	0.687 mPa·s	0.631 mPa·s
x1 = 0.00225	1.037 mPa·s	0.9232 mPa·s	0.8295 mPa·s	0.7524 mPa·s	0.688 mPa·s	–
x1 = 0.00269	1.044 mPa·s	0.9295 mPa·s	0.8368 mPa·s	0.7588 mPa·s	0.6951 mPa·s	–
x1 = 0.002693	1.046 mPa·s	0.9335 mPa·s	0.8396 mPa·s	0.7607 mPa·s	0.6936 mPa·s	0.6373 mPa·s
x1 = 0.00314	1.05 mPa·s	0.936 mPa·s	0.8435 mPa·s	0.7657 mPa·s	0.7019 mPa·s	–
x1 = 0.003143	1.053 mPa·s	0.9403 mPa·s	0.8465 mPa·s	0.7675 mPa·s	0.6999 mPa·s	0.6436 mPa·s
x1 = 0.003588	1.06 mPa·s	0.9474 mPa·s	0.8535 mPa·s	0.7743 mPa·s	0.7063 mPa·s	0.6495 mPa·s
x1 = 0.00359	1.057 mPa·s	0.9426 mPa·s	0.85 mPa·s	0.7724 mPa·s	0.7087 mPa·s	–

Source: the CheMixHub viscosity set
